The target in data set [1] is T1, Mycocyclosin synthase (Mycobacterium tuberculosis, UniProt P9WPP7).
T1 sequence (P9WPP7 whole entry): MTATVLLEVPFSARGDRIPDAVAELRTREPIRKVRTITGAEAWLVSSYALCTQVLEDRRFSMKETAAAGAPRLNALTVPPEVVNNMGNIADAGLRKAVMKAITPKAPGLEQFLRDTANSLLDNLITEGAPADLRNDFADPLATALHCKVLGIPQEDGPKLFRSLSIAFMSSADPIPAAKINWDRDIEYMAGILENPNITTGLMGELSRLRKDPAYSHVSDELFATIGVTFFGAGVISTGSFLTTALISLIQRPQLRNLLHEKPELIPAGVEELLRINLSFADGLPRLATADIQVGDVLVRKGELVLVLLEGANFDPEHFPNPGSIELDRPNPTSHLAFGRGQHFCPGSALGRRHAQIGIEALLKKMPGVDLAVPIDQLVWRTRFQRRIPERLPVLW
Details: species or system C41(DE3).

The target of data set [2] is T1, Mycocyclosin synthase. Further details: species or system C41(DE3). The source holds these as a separate data set.
Data set [3] relates to Mycobacterium tuberculosis. In words: Antimycobacterial activity against Mycobacterium tuberculosis H37Rv assessed as bacterial growth inhibition after 2 weeks. The class given is functional. To be noted: 336 h.
Data set [4] is described as follows: Inhibition of CYP1A1/CYP1A2 in human liver microsomes using ethoxyresorufin as substrate by fluorescence analysis. Format: ADME. (Liver microsomes are vesicles of endoplasmic reticulum, rich in cytochrome P450 enzymes.)
The next data set addresses Cytochrome P450 2C9 (Homo sapiens, UniProt P11712). Kind of data set: Inhibition of CYP2C9 in human liver microsomes using tolbutamide as substrate by LC-MS/MS analysis. The class given is ADME.
A further data set deals with Cytochrome P450 2C19 (Homo sapiens, UniProt P33261). In words: Inhibition of CYP2C19 in human liver microsomes using mephenytoin as substrate by LC-MS/MS analysis. The class given is ADME.
Another data set has as its target Cytochrome P450 2D6 (Homo sapiens, UniProt P10635). Kind of data set: Inhibition of CYP2D6 in human liver microsomes using dextromethorphan as substrate by LC-MS/MS analysis. Format: ADME.
The target in another data set is Cytochrome P450 3A4 (Homo sapiens, UniProt P08684).
Data set [5] concerns the target T2, Methyl-branched lipid omega-hydroxylase (Mycobacterium tuberculosis (strain ATCC 25618 / H37Rv), UniProt P9WPP3).
T2 sequence (P9WPP3 whole entry): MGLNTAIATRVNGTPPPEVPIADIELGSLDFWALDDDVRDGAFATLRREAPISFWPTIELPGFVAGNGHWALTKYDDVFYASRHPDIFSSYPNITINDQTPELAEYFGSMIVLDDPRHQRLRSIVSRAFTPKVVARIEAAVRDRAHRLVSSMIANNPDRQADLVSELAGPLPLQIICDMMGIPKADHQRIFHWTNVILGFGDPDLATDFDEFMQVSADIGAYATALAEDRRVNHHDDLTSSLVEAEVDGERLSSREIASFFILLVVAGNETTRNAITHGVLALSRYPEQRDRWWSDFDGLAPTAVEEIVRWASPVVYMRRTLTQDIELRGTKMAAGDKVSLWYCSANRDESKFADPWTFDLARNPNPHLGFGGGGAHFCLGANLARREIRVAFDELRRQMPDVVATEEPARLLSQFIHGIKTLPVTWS
Further details: species or system C41(DE3).

Data set [6] has as its target T3, Steroid C26-monooxygenase (Mycobacterium tuberculosis, UniProt P9WPP1).
T3 sequence (P9WPP1 whole entry): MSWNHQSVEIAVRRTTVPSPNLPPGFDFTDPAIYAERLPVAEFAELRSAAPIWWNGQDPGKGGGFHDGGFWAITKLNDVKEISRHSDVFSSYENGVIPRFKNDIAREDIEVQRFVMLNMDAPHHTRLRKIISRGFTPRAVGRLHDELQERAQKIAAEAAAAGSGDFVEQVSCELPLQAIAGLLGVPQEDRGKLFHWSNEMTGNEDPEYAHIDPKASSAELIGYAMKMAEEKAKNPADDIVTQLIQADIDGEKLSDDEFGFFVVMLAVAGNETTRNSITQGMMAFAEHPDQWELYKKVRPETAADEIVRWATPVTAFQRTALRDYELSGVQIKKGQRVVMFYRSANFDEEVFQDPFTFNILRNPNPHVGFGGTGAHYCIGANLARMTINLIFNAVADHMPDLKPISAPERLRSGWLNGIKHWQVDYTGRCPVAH
Further details: species or system C41(DE3).

Data set [7] has as its system CYP1A (relative to Mycobacterium tuberculosis CYP121). In words: in vitro. To be noted: human, c41(de3).
Description: Selectivity ratio of IC50 for human CYP1A to Kd for Mycobacterium tuberculosis His6-tagged CYP121 expressed in Escherichia coli C41 (DE3) cells

Molecules are shown by their SMILES. A value given as a limit tells only on which side of the number the result lay.

Chain of Cytochrome P450 2C19 (P33261 whole entry): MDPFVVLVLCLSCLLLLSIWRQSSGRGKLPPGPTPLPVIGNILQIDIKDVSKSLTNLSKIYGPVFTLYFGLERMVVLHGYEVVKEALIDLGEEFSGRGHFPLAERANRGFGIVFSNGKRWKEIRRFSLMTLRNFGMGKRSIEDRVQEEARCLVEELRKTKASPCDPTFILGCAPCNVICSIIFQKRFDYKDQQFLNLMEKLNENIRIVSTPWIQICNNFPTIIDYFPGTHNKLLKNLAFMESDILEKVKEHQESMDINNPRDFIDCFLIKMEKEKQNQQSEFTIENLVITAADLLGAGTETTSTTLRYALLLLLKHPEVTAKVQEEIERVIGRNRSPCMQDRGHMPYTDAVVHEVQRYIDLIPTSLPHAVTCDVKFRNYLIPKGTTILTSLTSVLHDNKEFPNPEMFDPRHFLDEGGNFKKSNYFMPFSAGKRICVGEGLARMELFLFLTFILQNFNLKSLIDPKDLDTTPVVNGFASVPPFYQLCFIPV
Chain of Cytochrome P450 3A4 (P08684 whole entry): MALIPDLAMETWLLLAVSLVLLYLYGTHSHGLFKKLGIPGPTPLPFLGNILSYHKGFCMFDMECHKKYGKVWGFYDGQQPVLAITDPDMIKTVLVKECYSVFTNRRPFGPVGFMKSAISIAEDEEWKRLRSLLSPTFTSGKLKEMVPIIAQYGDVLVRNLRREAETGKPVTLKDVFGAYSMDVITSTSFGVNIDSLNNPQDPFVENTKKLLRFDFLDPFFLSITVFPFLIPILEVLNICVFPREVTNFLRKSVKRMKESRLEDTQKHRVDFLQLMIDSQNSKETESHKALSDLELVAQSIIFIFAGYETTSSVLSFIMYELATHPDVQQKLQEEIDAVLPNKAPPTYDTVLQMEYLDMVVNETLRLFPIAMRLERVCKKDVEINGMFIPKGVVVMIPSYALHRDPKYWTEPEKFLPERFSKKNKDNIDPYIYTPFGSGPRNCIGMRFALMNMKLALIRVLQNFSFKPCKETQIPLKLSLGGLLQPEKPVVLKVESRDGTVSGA
Chain of Cytochrome P450 2D6 (P10635 whole entry): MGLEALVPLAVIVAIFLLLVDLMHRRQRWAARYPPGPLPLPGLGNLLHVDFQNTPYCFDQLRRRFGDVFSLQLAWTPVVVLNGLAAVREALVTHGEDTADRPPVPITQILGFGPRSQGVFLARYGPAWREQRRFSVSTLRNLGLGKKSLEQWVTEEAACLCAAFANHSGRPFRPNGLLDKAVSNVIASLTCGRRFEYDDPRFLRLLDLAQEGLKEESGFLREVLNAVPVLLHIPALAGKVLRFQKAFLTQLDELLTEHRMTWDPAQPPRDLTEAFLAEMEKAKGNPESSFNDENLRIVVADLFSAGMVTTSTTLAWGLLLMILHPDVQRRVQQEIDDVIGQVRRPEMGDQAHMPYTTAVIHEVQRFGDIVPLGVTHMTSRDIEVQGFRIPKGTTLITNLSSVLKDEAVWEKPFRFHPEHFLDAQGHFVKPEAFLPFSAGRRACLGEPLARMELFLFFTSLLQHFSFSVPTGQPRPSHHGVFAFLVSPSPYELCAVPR
Chain of Cytochrome P450 2C9 (P11712 whole entry): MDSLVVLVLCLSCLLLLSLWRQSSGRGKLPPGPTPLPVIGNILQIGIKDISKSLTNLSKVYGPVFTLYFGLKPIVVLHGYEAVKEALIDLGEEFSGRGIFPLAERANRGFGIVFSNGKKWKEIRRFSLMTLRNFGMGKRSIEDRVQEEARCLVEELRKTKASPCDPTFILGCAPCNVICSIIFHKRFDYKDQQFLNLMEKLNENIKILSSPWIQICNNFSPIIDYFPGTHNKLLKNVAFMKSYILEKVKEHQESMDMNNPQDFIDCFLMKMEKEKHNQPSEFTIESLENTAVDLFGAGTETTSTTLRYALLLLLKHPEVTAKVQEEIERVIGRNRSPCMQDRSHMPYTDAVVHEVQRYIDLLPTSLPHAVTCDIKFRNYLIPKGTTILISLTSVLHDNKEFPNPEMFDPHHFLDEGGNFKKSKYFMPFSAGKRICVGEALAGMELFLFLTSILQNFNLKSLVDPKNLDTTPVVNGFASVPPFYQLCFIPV
Description for Cytochrome P450 3A4: Inhibition of CYP3A4 in human liver microsomes using midazolam as substrate by LC-MS/MS analysis

For orientation: Kd means the free concentration of one partner at which half of the binding sites on the other are occupied at equilibrium, for simple one-to-one binding. As for `Cc1ccc2cc(N)ccc2n1`, the Kd on Mycocyclosin synthase [1] (read-out: Kd) is 400 µM.
Same read-out and setting: the same measure for `Oc1ccc(Nc2[nH]nc(-c3ccc(O)cc3)c2-c2ccc(O)cc2)cc1`: 15 µM.
As to `Nc1cccc(Cn2cncn2)c1`, the Kd on Mycocyclosin synthase [1] (read-out: Kd) came to 1600 µM.
The same measure, in the same setting: the same measure for `COc1ccc(-c2cn[nH]c2N)cc1-c1cccc(N)c1`: 68 µM; for `NC(=O)c1cc(Cl)ccc1N`: 3400 µM.
For the compound `Nc1cccc(-c2cc(-c3cn[nH]c3N)ccc2OCc2ccccc2)c1`, at Mycocyclosin synthase [1] (read-out: Kd), the Kd was 28 µM.
Broadly, the MIC90 is an inhibitory concentration at the 90% level, which refers to growth in some studies and to a panel of isolates in others. With `COc1ccc(-c2n[nH]c(N)c2-c2cccc(-c3cccc(N)c3)c2)cc1`, the Kd result on Mycocyclosin synthase [1] (c41(de3)) was “ND(Insoluble)”; on Mycocyclosin synthase [2] it was 0.034 µM. The MIC90 in data set [3] was at least 50 µM.
As for `Nc1cc(-c2ccc(O)cc2)n[nH]1`, the Kd on Mycocyclosin synthase [1] (read-out: Kd) stood at 1300 µM.
For the compound `Nc1cccc(-c2cc(-c3c(-c4ccc(O)cc4)n[nH]c3N)ccc2O)c1`, the MIC90 in [3] was at least 50 µM.
Consider `O=C(Nc1[nH]nc(-c2ccc(O)cc2)c1-c1ccc(O)cc1)c1ccncc1`, for which the dissociation constant Kd at Mycocyclosin synthase [1] (read-out: Kd) stood at 600 µM.
As a reminder, the IC50 is the point on the concentration scale where inhibition reaches its midpoint. A lower IC50 goes with higher potency. Regarding `Oc1ccc(CNc2[nH]nc(-c3ccc(O)cc3)c2-c2ccc(O)cc2)cc1`, on Mycocyclosin synthase [1] (read-out: Kd), the Kd is 6.3 µM. The IC50 (in data set [4]; against Cytochrome P450 2C9; at Cytochrome P450 2C19; against Cytochrome P450 2D6; against Cytochrome P450 3A4) was over 25 µM throughout. In data set [3], the MIC90 is at least 50 µM.
In the case of `Nc1[nH]nc(-c2cccc(O)c2)c1-c1ccc(O)cc1`, on Mycocyclosin synthase [1] (read-out: Kd), the Kd came out at 60 µM.
As to `Oc1ccc(-c2n[nH]c(NCc3c[nH]cn3)c2-c2ccc(O)cc2)cc1`, the Kd on Mycocyclosin synthase [1] (read-out: Kd) came to 275 µM.
Consider `Nc1[nH]nc(-c2ccc(O)cc2)c1-c1ccc(O)cc1`, for which, at Mycocyclosin synthase [1] (read-out: Kd), the Kd was determined as 40 µM. Also, the MIC90 in data set [3] is at least 50 µM.
On to `Oc1ccc(-c2n[nH]c(NCc3ccco3)c2-c2ccc(O)cc2)cc1`, for which the Kd at Mycocyclosin synthase [1] (read-out: Kd) was 24 µM.
For the compound `Oc1ccc(-c2n[nH]c(NCc3ccc(O)c(Br)c3)c2-c2ccc(O)cc2)cc1`, the Kd at Mycocyclosin synthase [1] (read-out: Kd) was 19 µM.
Take `Oc1ccc(-c2n[nH]c(NCc3ccsc3)c2-c2ccc(O)cc2)cc1`: the Kd on Mycocyclosin synthase [1] (read-out: Kd) turned out to be 18 µM.
Take `O=C(Nc1[nH]nc(-c2ccc(O)cc2)c1-c1ccc(O)cc1)c1ccc(O)cc1`: the equilibrium dissociation constant (Kd) on Mycocyclosin synthase [1] (read-out: Kd) amounted to 78 µM.
The same measure, in the same setting: the figure for `Nc1[nH]nc(-c2cccc(F)c2)c1-c1ccc(O)cc1` is 252 µM.
Regarding `Oc1ccc(Nc2cc(-c3ccc(O)cc3)[nH]n2)cc1`, the Kd on Mycocyclosin synthase [1] (read-out: Kd) was 10.6 µM.
As for `Nc1[nH]nc(-c2ccc(O)cc2O)c1-c1ccc(O)cc1`, the Kd on Mycocyclosin synthase [1] (read-out: Kd) was determined as 181 µM.
`Oc1ccc(-n2cncn2)cc1`: the Kd at Mycocyclosin synthase [1] (read-out: Kd) was determined as 1700 µM.
The same measure, in the same setting: the same measure for `Oc1ccc(-c2n[nH]c(NCc3ccc4[nH]ccc4c3)c2-c2ccc(O)cc2)cc1`: 60 µM; for `Oc1ccc(-c2n[nH]c(NCc3ccncc3)c2-c2ccc(O)cc2)cc1`: 240 µM; for `Nc1[nH]ncc1-c1ccc(O)cc1`: 1870 µM.
Regarding `Nc1cccc(-c2cccc(-c3c(-c4ccc(O)cc4)n[nH]c3N)c2)c1`, the Kd came to 0.74 µM at Mycocyclosin synthase [1] (read-out: Kd), 0.015 µM at Mycocyclosin synthase [2], 0.86 µM in data set [5] and 18.4 µM in data set [6]. The 50% inhibitory concentration (IC50) in data set [4] is 21.4 µM; on Cytochrome P450 2C9, over 25 µM; against Cytochrome P450 2C19, over 25 µM; against Cytochrome P450 2D6, over 25 µM; on Cytochrome P450 3A4, 11.3 µM. Also, in [3], the MIC90 is at least 50 µM. In addition, in data set [7], the selectivity ratio is 1430.
Consider `Nc1cccc(-c2cccc(-c3cn[nH]c3N)c2)c1`, for which the Kd on Mycocyclosin synthase [1] (read-out: Kd) was found to be 140 µM; at Mycocyclosin synthase [2] it was 14 µM. The IC50 in data set [4] was 1.22 µM; on Cytochrome P450 2C9, over 25 µM; on Cytochrome P450 2C19 it was over 25 µM; on Cytochrome P450 2D6, over 25 µM; at Cytochrome P450 3A4, over 25 µM. Besides, in data set [3], the MIC90 is at least 50 µM. In addition, the selectivity ratio in data set [7] was determined as 0.09.
Take `Nc1ccc(-c2cccc(-c3cn[nH]c3N)c2)cc1`: at Mycocyclosin synthase [2], binding was put at a Kd of 230 µM.
Turning to `Oc1ccc(-c2n[nH]c(NCc3cccc4[nH]ncc34)c2-c2ccc(O)cc2)cc1`, the Kd on Mycocyclosin synthase [1] (read-out: Kd) came to 45 µM.
With `O=C(Nc1[nH]nc(-c2ccc(O)cc2)c1-c1ccc(O)cc1)c1ccccc1`, the dissociation constant (Kd) at Mycocyclosin synthase [1] (read-out: Kd) was 160 µM.

The record behind these values is ChEMBL document CHEMBL3804790, “Fragment-Based Approaches to the Development of Mycobacterium tuberculosis CYP121 Inhibitors” (J Med Chem, 2016).
